How the values were obtained:
[1] = biological target: T1, sigma receptor (Cavia porcellus, UniProt Q60492); test: Evaluation of affinity to sigma receptors ([3H](+)-pentazocine receptor binding experiment); parameters: species or system guinea pig; conditions: membrane preparation from whole brain of guinea pigs, 25° C., 60 minutes, Dixon plot
T1 construct: A membrane preparation as a sigma receptor obtained from the whole brain of guinea pigs; from tissue; host or cells: guinea pig whole brain membrane preparation
T1 sequence (Q60492 whole entry): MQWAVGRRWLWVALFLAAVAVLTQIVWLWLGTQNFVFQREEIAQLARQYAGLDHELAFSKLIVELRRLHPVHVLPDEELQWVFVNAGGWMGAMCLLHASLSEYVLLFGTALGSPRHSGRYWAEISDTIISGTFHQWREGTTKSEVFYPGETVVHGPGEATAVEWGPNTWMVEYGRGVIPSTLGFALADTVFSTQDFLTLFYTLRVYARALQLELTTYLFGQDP
Protocol: A membrane preparation as a sigma receptor obtained from the whole brain of guinea pigs was used as an assay system; [^3H] (+)-pentazocine was used as a radioactive ligand; (+)-pentazocine was used as a positive substance; and 50 mM Tris hydrochloric acid buffer (pH 7.4) was used as a buffer.
The measurement of the following radioactivity was performed according to a common method after the binding reaction had been carried out at 25° C. for 60 minutes.
The inhibition rate was determined by the equation of “100−binding rate”. The binding rate is represented by the following equation:
The IC50 of the test substance was calculated from a regression equation to the dose-response curve. That is, the ratio y=(B−N)/(B0−N) wherein a value of (B−N) is a specific binding radioactivity in the presence of a test substance, and a value of (B0−N) is a specific binding radioactivity in the absence of a test substance was first subjected to logit conversion and applied to a logit-log model plotted against the common logarithm of the test substance concentration to create a dose-response curve. […] The regression equation to the dose-response curve used is as follows:
wherein Y=logity=ln(y/(1−y), X=log x, and a and b are each a constant, provided that x is a solute concentration of a test substance.
Then, for each concentration of the positive substance, the reaction rate was measured while changing the concentration of the test substance in a range including the IC50 to create the Dixon plot, and the Ki value was calculated from the test substance concentration giving an intersection of these straight lines.

[2] = system: rat cerebral cortex neural cells; test: Evaluation of neurite outgrowth-promoting activity in central neural cells; format: cell-based; conditions: 48 hours after addition, longest neurite length 60 μm or more, mean±standard error, control 18.0 ± 1.6
Protocol: The neurite outgrowth-promoting effect of the rat cerebral cortex neural cells on test substances was evaluated using the following method. The cerebral cortex neural cells were isolated from Wistar rats on the 18th day of pregnancy according to the method of Springer Neuroscience Lab Manual. That is, under ether anesthesia, a fetal rat was removed from the uterus of a pregnant rat on day 18, and transferred into a petri dish containing HBSS (manufactured by Gibco, Inc.) on ice. The brain was subdivided into three pieces under a stereoscopic microscope to cut out the cerebral cortex. The cerebral cortex that had been cut out was dispersed with a neural cell dispersion solution (manufactured by Sumitomo Bakelite Co., Ltd.) to prepare rat cerebral cortex cells.
The resulting cerebral cortex cells were subjected to cell culture. Neurobasal medium (manufactured by Gibco, Inc.) supplemented with B27 Supplement (manufactured by Gibco, Inc.; Fin. 2% v/v), L-glutamine (manufactured by IBCO company; Fin. 0.5 mM) and GlutaMax I (manufactured by Gibco, Inc.; Fin. 0.5 mM) was used as the culture medium. The culture conditions were as follows: 5% CO2, 95% air, 100% humidity, and 37° C. The cells were inoculated to polylysine-coated 8-well slides (manufactured by IWAKI company) so as to have about 2×10^4 cells/well.
Compounds (1) to (6) were added as respective test substances (final concentrations: […] and 1.0 μM) to the culture solution at about 3 hours after the cell inoculation, and the culture solution with no additives was used as a control.
At 48 hours after the addition of the compounds, the cells were fixed at room temperature for about 30 minutes using 4% paraformaldehyde (manufactured by Wako Pure Chemical Industries), and incubated with an anti-α-Tublin antibody (Anti-α-Tubulin Alexa Fluor 488 conjugate) recognizing a microtubule protein, at room temperature for one hour. After washing, the nucleus of the whole cell was stained with a nucleic acid-staining agent DAPI. The cells were observed under a fluorescence microscope at a magnification of 20 times. The stained cell image and the nuclear staining image in the same field of vision were imported into a computer as the image. Using an image analysis software (MethaMorph (registered trademark), Molecular Devises), the image imported into the computer, was used to measure the “longest neurite length” that was the length of the longest neurite of individual cell in each field of vision. A cell having a length of the “longest neurite length” of 60 μm or more is defined as a “neurite forming cell” and the neurite forming activity was evaluated by the ratio of the “neurite forming cell” occupied in the number of the cells in the same field of vision. In other words, such evaluation was performed by determining the rate of the neurite forming cells using the following equation:
Rate of neurite forming cells=[Number of neurite forming cells/Number of total cells in the same field of vision]×100
Each numerical value represents mean±standard error.

Compound | Ki [1] | Neurite outgrowth-promoting activity (rate of neurite forming cells) ([2]; 0.3 μM) | Neurite outgrowth-promoting activity (rate of neurite forming cells) ([2]; 1.0 μM)
c1ccc(CN2CCN(C3CCCCC3)CC2)cc1 [Compound (1), 1-benzyl-4-cyclohexylpiperazine] | 6.5 nM | 55.2 ± 1.5% | 54.6 ± 1.5%
c1ccc(CCN2CCN(C3CCCCC3)CC2)cc1 [Compound (2), 1-(2-phenylethyl)-4-cyclohexylpiperazine] | 6 nM | 55.7 ± 2.4% | 55.1 ± 2.3%
c1ccc(CCCN2CCN(C3CCCCC3)CC2)cc1 [Compound (3), 1-(3-phenylpropyl)-4-cyclohexylpiperazine] | 6.1 nM | 49.6 ± 2.7% | 58.4 ± 2.8%
c1ccc(CC2CCN(C3CCCCC3)CC2)cc1 [Compound (4), 1-cyclohexyl-4-benzylpiperidine] | 7 nM | 50.7 ± 2.7% | 51.1 ± 2.9%
c1ccc(CCC2CCN(C3CCCCC3)CC2)cc1 [Compound (5), 1-cyclohexyl-4-(2-phenylethyl)piperidine] | 3.9 nM | 51.2 ± 2.0% | 48.9 ± 1.5%
c1ccc(CCCC2CCN(C3CCCCC3)CC2)cc1 [Compound (6), 1-cyclohexyl-4-(3-phenylpropyl)piperidine] | 2.1 nM | 54.2 ± 1.7% | 46.0 ± 2.4%
COc1ccc(CCN2CCN(CCCc3ccccc3)CC2)cc1OC [Reference compound, reference compound] | – | 44.6 ± 2.2% | 58.4 ± 1.8%

Source: patent US20110263862A1, “PIPERIDINE DERIVATIVE, PIPERAZINE DERIVATIVE AND AGENT FOR TREATMENT OF DISEASE INVOLVING CENTRAL NERVOUS SYSTEM DISORDERS” (M'S Science Corporation, priority 2008, published 2011)
